Experimental data reported in US9999616B2 (ZENITH EPIGENETICS LTD., priority 2013, dated 2018).

Test system: Bcl2 and c-myc gene expression
Test: Evaluation of target engagement: Bcl2 and c-myc gene expression in MV4-11 and MM1.s xenograft tumors
Format: in vivo, mouse
Details: oral dose, tumors harvested 3, 6, 12, 24 hrs post dose for Bcl2 and c-myc gene expression as PD biomarkers
Procedure: MV4-11 and MM1.s cells (ATCC) are grown under standard cell culture conditions and (NCr) nu/nu fisol strain of female mice age 6-7 weeks are injected with 5×10^6 cells/animal in 100 μL PBS+100 μL Matrigel in the lower left abdominal flank. By approximately day 28 after MV4-11 and MM1.s cells injection, mice are randomized based on tumor volume (L×W×H)/2) of average ˜500 mm^3. Mice are dosed orally with compound in EA006 formulation at 10 mL/kg body weight dose volume and tumors harvested 3, 6, 12, 24 hrs post dose for Bcl2 and c-myc gene expression analysis as PD biomarkers.

Cc1noc(C)c1-c1cc(-c2c(C)noc2C)c2nc[nH]c2c1 [Example Compound 1, 4,4′-(1H-benzo[d]imidazole-4,6-diyl)bis(3,5-dimethylisoxazole)]
In vivo activity: Active
